Source: US7915291B2, “Hepatitis C virus inhibitors” (Bristol-Myers Squibb Company, priority 2002, dated 2011)
Read-outs that look alike come from different tables or passages of the source.

Columns and labels:
[1] = tested on: HCV replicon in Huh7 cells; assay: HCV replicon cell-based assay; set-up: species or system HCV strain 1B; settings: HCV replicon, Huh7 cells, read-out: EC50 range
[2] = target: HCV NS3/4A protease complex, BMS strain (UniProt P27958, C1454S/C1711G, species not given/STRAIN_BMS); assay: Recombinant HCV NS3/4A protease complex FRET peptide assay (BMS strain); type: biochemical, HCV genotype 1a; settings: NS3/4A BMS strain; read-out: IC50 range
Outline: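 Percent inhibition taken from the linear-range fluorescence slope relative to uninhibited control, read kinetically for about 15 min at 25° C. Enzyme (2-3 nM, BMS NS3/4A complex, lysine-tailed, Ni-NTA purified) met compound for 1 min before 2 μM FRET depsipeptide substrate started cleavage.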

Structure (SMILES)	EC50 ([1]; Hepatitis C virus, Huh-7) [nM]	IC50 [2] [nM]	EC50 [1] [nM]
C=C[C@@H]1CC1(NC(=O)[C@@H]1CC(Oc2nccc3cc(OC)ccc23)CN1C(=O)[C@@H](NC(=O)O[C@@H]1C[C@H](C)CC[C@H]1C(C)C)C(C)(C)C)C(=O)NS(=O)(=O)C1CC1 (stereo partly shown) [Compound 66]	100 to 1000	< 100	
C=C[C@@H]1CC1(NC(=O)[C@@H]1CC(Oc2nccc3cc(OC)ccc23)CN1C(=O)[C@@H](NC(=O)O[C@H]1C[C@@H](C)CC[C@@H]1C(C)C)C(C)(C)C)C(=O)NS(=O)(=O)C1CC1 (stereo partly shown) [Compound 65]	100 to 1000	< 100	
C=C[C@@H]1C[C@]1(NC(=O)[C@@H]1C[C@@H](Oc2nccc3ccc(Cl)cc23)CN1C(=O)[C@@H](NC(=O)OC(C)(C)C)C(C)(C)C)C(=O)NS(=O)(=O)C1CC1 [Compound 258]	< 100	< 100	
C=C[C@@H]1C[C@]1(NC(=O)[C@@H]1CC(Oc2nccc3cc(OC)ccc23)CN1C(=O)[C@@H](NC(=O)NC(C)(C)Cc1ccc(F)cc1)C(C)(C)C)C(=O)NS(=O)(=O)C1CC1 (stereo partly shown) [Compound 82]	100 to 1000	< 100	
C=C[C@@H]1C[C@]1(NC(=O)[C@@H]1C[C@@H](Oc2nccc3cc(Br)ccc23)CN1C(=O)[C@@H](NC(=O)OC(C)(C)C)C(C)(C)C)C(=O)NS(=O)(=O)C1CC1 [Compound 22]	100 to 1000	< 100	
C=CC1C[C@]1(NC(=O)[C@@H]1C[C@@H](Oc2nc(-c3ccc(N(CC)CC)cc3)cc3cc(OC)ccc23)CN1C(=O)[C@@H](NC(=O)OC(C)(C)C)C(C)(C)C)C(=O)NS(=O)(=O)C1CC1 (stereo partly shown) [Compound 327]	< 100	< 100	
C=CC1C[C@]1(NC(=O)[C@@H]1C[C@@H](Oc2nc(-c3cccc(N(C)C)c3)cc3cc(OC)ccc23)CN1C(=O)[C@@H](NC(=O)OC(C)(C)C)C(C)(C)C)C(=O)NS(=O)(=O)C1CC1 (stereo partly shown) [Compound 330]	< 100	< 100	
C=C[C@@H]1C[C@]1(NC(=O)[C@@H]1C[C@@H](Oc2nc(-c3ccncc3)cc3ccccc23)CN1C(=O)[C@@H](NC(=O)OC(C)(C)C)C(C)(C)C)C(=O)NS(=O)(=O)C1CC1 [Compound 27]	< 100	< 100	
C=C[C@@H]1C[C@]1(NC(=O)[C@@H]1CC(Oc2nccc3cc(OC)ccc23)CN1C(=O)[C@H](CC(C)C)N(C)C(=O)OC(C)(C)C)C(=O)NS(=O)(=O)C1CC1 (stereo partly shown) [Compound 86]	10000 to 100000	1000 to 10000	
C=CC1C[C@]1(NC(=O)[C@@H]1C[C@@H](Oc2nccc3c(C(=O)c4cccs4)c(OC)ccc23)CN1C(=O)[C@@H](NC(=O)OC(C)(C)C)C(C)(C)C)C(=O)NS(=O)(=O)C1CC1 (stereo partly shown) [Compound 209]	100 to 1000	< 100	
C=C[C@@H]1C[C@]1(NC(=O)[C@@H]1C[C@@H](Oc2nccc3cc(OC)c(Cl)cc23)CN1C(=O)[C@@H](NC(=O)OC(C)(C)C)C(C)(C)C)C(=O)NS(=O)(=O)C1CC1 [Compound 273]	< 100	< 100	
C=C[C@@H]1C[C@]1(NC(=O)[C@@H]1C[C@@H](Oc2nccc3ccccc23)CN1C(=O)[C@@H](NC(=O)OCC(C)(C)C)C(C)(C)C)C(=O)NS(=O)(=O)C1CC1 [Compound 125]	< 100	< 100	
C=CC1C[C@]1(NC(=O)[C@@H]1C[C@@H](Oc2noc3cc(OC)ccc23)CN1C(=O)[C@@H](NC(=O)OC(C)(C)C)C(C)(C)C)C(=O)NS(=O)(=O)C1CC1 (stereo partly shown) [Compound 323]	100 to 1000	< 100	
C=C[C@@H]1C[C@]1(NC(=O)[C@@H]1C[C@@H](Oc2nccc3c(C)cccc23)CN1C(=O)[C@@H](NC(=O)OC(C)(C)C)C(C)(C)C)C(=O)NS(=O)(=O)C1CC1 [Compound 252]	< 100	< 100	
C=C[C@@H]1C[C@]1(NC(=O)[C@@H]1C[C@@H](Oc2nccc3cc(OC)ccc23)CN1C(=O)C(NC(=O)N[C@H](C(=O)OC)C(C)C)C(C)(C)C)C(=O)NS(=O)(=O)C1CC1 (stereo partly shown) [Compound 141]	< 100	< 100	
C=C[C@@H]1C[C@]1(NC(=O)[C@@H]1C[C@@H](Oc2nccc3cc(OC)ccc23)CN1C(=O)[C@@H](NC(=O)NCC(=O)OC)C(C)(C)C)C(=O)NS(=O)(=O)C1CC1 [Compound 144]	100 to 1000	< 100	
C=C[C@@H]1C[C@]1(NC(=O)[C@@H]1C[C@@H](Oc2ccnc3ccccc23)CN1C(=O)[C@@H](NC(=O)OC(C)(C)C)C(C)(C)C)C(=O)NS(C)(=O)=O [Compound 386]	1000 to 10000	100 to 1000	
C=C[C@@H]1C[C@]1(NC(=O)[C@@H]1C[C@@H](Oc2cc3c(Cl)nccc3cc2OC)CN1C(=O)[C@@H](NC(=O)OC(C)(C)C)C(C)(C)C)C(=O)NS(=O)(=O)C1CC1 [Compound 262]	< 100	< 100	

Structure (SMILES)	EC50 ([1]; Hepatitis C virus, Huh-7) [nM]	IC50 [2] [nM]	EC50 [1] [nM]
C=CC1C[C@]1(NC(=O)[C@@H]1C[C@@H](Oc2nc(-c3ccccn3)cc3cc(OC)ccc23)CN1C(=O)[C@@H](NC(=O)OC(C)(C)C)C(C)(C)C)C(=O)NS(=O)(=O)C1CC1 (stereo partly shown) [Compound 320]	< 100	< 100	
C=C[C@@H]1C[C@]1(NC(=O)[C@@H]1C[C@@H](Oc2nccc3cc(OC)ccc23)CN1C(=O)[C@@H](NC(=O)OC(C)(C)C)[C@@H](C)OCc1ccccc1)C(=O)NS(=O)(=O)C1CC1 [Compound 110]	100 to 1000	< 100	
C=CC1C[C@]1(NC(=O)[C@@H]1C[C@@H](Oc2nccc3c4c(ccc23)OCO4)CN1C(=O)[C@@H](NC(=O)OC(C)(C)C)C(C)(C)C)C(=O)NS(=O)(=O)C1CC1 (stereo partly drawn) [Compound 211, BOCNH-P3(L-t-BuGly)-P2-[(4R)-(1,3-Dioxa-7-aza-cyclopenta[α]naphthalen-6-ol)-S -proline]-P1(1R,2S VinylAcca)-CONHSO2Cyclopropane]	< 100	< 100	
C=C[C@@H]1C[C@]1(NC(=O)[C@@H]1C[C@@H](Oc2nc(-c3ccoc3)c(OC)c3ccccc23)CN1C(=O)[C@@H](NC(=O)OC(C)(C)C)C(C)(C)C)C(=O)NS(=O)(=O)C1CC1 [Compound 229, BOCNH-P3(L-t-BuGly)-P2[(4R)-(3-furan-3-yl-4methoxy -isoquinolin-1-oxo)-S-proline]-P1(1R,2S VinylAcca)-CONHSO2Cyclopropane]		< 100	< 100
CC[C@@H]1C[C@]1(NC(=O)[C@@H]1C[C@@H](Oc2nccc3c4c(ccc23)OCCO4)CN1C(=O)[C@@H](NC(=O)OC(C)(C)C)C(C)(C)C)C(=O)NS(=O)(=O)C1CC1 [Compound 290]	< 100	< 100	
C=C[C@@H]1C[C@]1(NC(=O)[C@@H]1C[C@@H](Oc2nccc3ccccc23)CN1C(=O)[C@@H](NC(=O)CCOC)C(C)(C)C)C(=O)NS(=O)(=O)C1CC1 [Compound 132]	1000 to 10000	< 100	
C=C[C@@H]1C[C@]1(NC(=O)[C@@H]1CC(Oc2nc(-c3ccccc3)cc3ccccc23)CN1C(=O)[C@@H](NC(=O)OC(C)(C)C)[C@H](C)OCC)C(=O)NS(=O)(=O)C1CC1 (stereo partly shown) [Compound 109]	< 100	< 100	
C=C[C@@H]1C[C@]1(NC(=O)[C@@H]1C[C@@H](Oc2nc(Cl)cc3ccccc23)CN1C(=O)[C@@H](NC(=O)OC(C)(C)C)C(C)(C)C)C(=O)NS(=O)(=O)C1CC1 [Compound 24]	< 100	< 100	
C=C[C@@H]1C[C@]1(NC(=O)[C@@H]1C[C@@H](Oc2ccnc(-c3ccccc3)c2)CN1C(=O)[C@@H](NC(=O)OC1CCCC1)C(C)(C)C)C(=O)NS(=O)(=O)C1CC1 [Compound 421]	100 to 1000	< 100	
C=C[C@@H]1C[C@]1(NC(=O)[C@@H]1C[C@@H](Oc2nccc3cc(OC)ccc23)CN1C(=O)[C@@H](NC(=O)OC1CCCC1)C(C)(C)C)C(=O)NS(=O)(=O)C1CCC1 [Compound 380]	100 to 1000	< 100	
C=C[C@@H]1C[C@]1(NC(=O)[C@@H]1C[C@@H](Oc2ccnc3cc(Cl)ccc23)CN1C(=O)[C@@H](NC(=O)OC(C)(C)C)C(C)(C)C)C(=O)NS(=O)(=O)C1CC1 [Compound 371]	< 100	< 100	
C=C[C@@H]1C[C@]1(NC(=O)[C@@H]1C[C@@H](Oc2nccc3ccccc23)CN1C(=O)[C@@H](NC(=O)COC)C(C)(C)C)C(=O)NS(=O)(=O)C1CC1 [Compound 131]	1000 to 10000	100 to 1000	
C=CC1C[C@]1(NC(=O)[C@@H]1C[C@@H](Oc2nccc3cc(CC)ccc23)CN1C(=O)[C@@H](NC(=O)OC(C)(C)C)C(C)(C)C)C(=O)NS(=O)(=O)C1CC1 (stereo partly drawn) [Compound 189, BOCNH-P3(L-tert-BuGly)-P2[(4R)-(6-ethyl isoquinolin-1-oxo)-S -proline]-P1(1R,2S Vinyl Acca)-CONHSO2-Cyclopropane]	100 to 1000	< 100	
C=C[C@@H]1C[C@]1(NC(=O)[C@@H]1C[C@@H](Oc2cc(C)nc(-c3cccs3)c2)CN1C(=O)[C@@H](NC(=O)OC(C)(C)C)C(C)(C)C)C(=O)NS(=O)(=O)C1CC1 [Compound 438]	100 to 1000	< 100	
C=C[C@@H]1C[C@]1(NC(=O)[C@@H]1C[C@@H](Oc2cc(-c3ccc(OC)cc3)nc3c(C)noc23)CN1C(=O)[C@@H](NC(=O)OC(C)(C)C)C(C)(C)C)C(=O)NS(=O)(=O)C1CC1 [Compound 3]	< 100	< 100	
C=C[C@@H]1C[C@]1(NC(=O)[C@@H]1C[C@@H](Oc2nccc3ccccc23)CN1C(=O)[C@@H](NC(=O)OC(C)(C)C)C(C)(C)C)C(=O)NS(=O)(=O)C1CC1 [Compound 23]	< 100	< 100	
C=CC1C[C@]1(NC(=O)[C@@H]1C[C@@H](Oc2cccc3c(Cl)ccnc23)CN1C(=O)[C@@H](NC(=O)OC(C)(C)C)C(C)(C)C)C(=O)NS(=O)(=O)C1CC1 (stereo partly drawn) [Compound 242, BOCNH-P3(L-t-BuGly)-P2[(4R)-(4-chloroquinoline-8-oxo)-S -proline]-P1(1R,2S VinylAcca)-CONHSO2Cyclopropane]	1000 to 10000	< 100	
